How the values were obtained:
[1] = system: human tumour cell line MCF7; experiment: In vitro cell proliferation assay; format: cell-based; details: MCF7, 72 h, MCF-7 cells, 3 days with compound, CyQUANT, read-out: concentration giving 50% inhibition of cell proliferation
Excerpt: (a) In Vitro Cell Proliferation Assay
This assay determines the ability of a test compound to inhibit the growth of adherent mammalian cell lines, for example the human tumour cell line MCF7. MCF-7 (ATCC HTB-22) or other adherent cells were typically seeded at 1×10^3 cells per well (excluding the peripheral wells) in DMEM (Sigma Aldrich) without phenol red, plus 10% foetal calf serum, 1% L-glutamine and 1% penicillin/streptomycin in 96 well tissue culture treated clear plates (Costar). The following day (day 1), the media was removed from a no treatment control plate and the plate stored at −80° C. The remaining plates were dosed with compound (diluted from 10 mM stock in DMSO using DMEM (without phenol red, 10% FCS, 1% L-glutamine, 1% penicillin/streptomycin). Untreated control wells were included on each plate. After 3 days in the presence/absence of compound (day 4) the media was removed and the plates stored at −80° C. Twenty four hours later the plates were thawed at room temperature and cell density determined using the CyQUANT cell proliferation assay kit (c-7026/c-7027 Molecular Probes Inc.) according to manufacturers directions. Briefly, 200 μl of a cell lysis/dye mixture (10 μl of 20× cell lysis buffer B, 190 μl of sterile water, 0.25 μl of CYQUANT GR dye) was added to each well and the plates incubated at room temperature for 5 minutes in the dark. […]

[2] = system: MCF7 cells; experiment: In vitro cell cycle analysis assay; format: cell-based, human; details: 24 hours, 10 μM Compound 52 (text b2735 says 1 μM)
Method: (a) In Vitro Cell Cycle Analysis Assay
This assay determines the ability of a test compound to arrest cells in specific phases of the cell cycle. Many different mammalian cell lines could be used in this assay and MCF7 cells are included here as an example. MCF-7 cells were seeded at 3×10^5 cells per T25 flask (Costar) in 5 ml DMEM (no phenol red 10% FCS, 1% L-glutamine 1% penicillin/streptomycin). Flasks were then incubated overnight in a humidified 37° C. incubator with 5% CO2. The following day 1 ml of DMEM (no phenol red 10% FCS, 1% L-glutamine 1% penicillin/streptomycin) carrying the appropriate concentration of test compound solubilised in DMSO was added to the flask. A no compound control treatments was also included (0.5% DMSO). The cells were then incubated for a defined time (usually 24 hours) with compound. […] The samples were then transferred to LPS tubes and DNA content per cell analysed by Fluorescence activated cell sorting (FACS) using a FACScan flow cytometer (Becton Dickinson). Typically 25000 events were counted and recorded using CellQuest v1.1 software (Verity Software). Cell cycle distribution of the population was calculated using Modfit software (Verity Software) and expressed as percentage of cells in G0/G1, S and G2/M phases of the cell cycle. […]

[3] = biological target: T1, aurora2 kinase (Homo sapiens, UniProt O14965); experiment: In vitro aurora2 kinase inhibition test; format: biochemical
T1 construct: made in house; host or cells: Spodoptera frugiperda Sf21 insect cells (baculovirus)
T1 sequence (O14965 1-403): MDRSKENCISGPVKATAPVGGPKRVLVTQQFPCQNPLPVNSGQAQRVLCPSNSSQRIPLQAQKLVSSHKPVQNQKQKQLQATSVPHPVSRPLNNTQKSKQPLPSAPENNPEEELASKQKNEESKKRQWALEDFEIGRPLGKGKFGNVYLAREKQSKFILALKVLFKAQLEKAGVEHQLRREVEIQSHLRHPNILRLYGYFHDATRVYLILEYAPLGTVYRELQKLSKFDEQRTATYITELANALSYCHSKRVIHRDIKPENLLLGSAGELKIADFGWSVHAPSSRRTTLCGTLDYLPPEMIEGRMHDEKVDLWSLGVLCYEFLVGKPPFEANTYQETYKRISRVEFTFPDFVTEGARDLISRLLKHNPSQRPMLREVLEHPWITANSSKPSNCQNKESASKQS

For `COc1cc2c(Nc3nc(CC(=O)Nc4ccc(F)cc4)cs3)ncnc2cc1OCCCN1CCOCC1` [Compound 52], the IC50 [1] was 616 nM, the “% Cells in G2/M” value [2] was over 50% and the IC50 [3] was 167 nM.

Source: patent US6919338B2, “Substituted quinazoline derivatives and their use as inhibitors of aurora-2 kinase” (AstraZeneca AB, priority 2000, dated 2005)
